Earlier results on one compound are cited in patent publication US8765739B2, “Azetidine compound and pharmaceutical use thereof” (Japan Tobacco Inc., priority 2009, dated 2014).

Molecules are shown by their SMILES.

For data set [1], the system named is rats suffering from experimental autoimmune encephalomyelitis. To be noted: animal model of multiple sclerosis.
In data set [2] the test system is mice with collagen-induced arthritis.
Data set [3] deals with bone absorption induced by metastatic cancer in rat.

Turning to `COc1cc(Oc2ccnc3cc(OC)c(OC)cc23)ccc1NC(=O)NC(C)c1nccs1` (stereo not drawn) [Ki20227], the “condition of rats with experimental autoimmune encephalomyelitis” value in data set [1] is reported as “improves the condition”. In addition, in data set [2], the “swellings and bone destructions” value is “improves swellings and bone destructions”. Also, in data set [3], the “bone absorption induced by metastatic cancer” value is given as “improves bone absorption”.
